Tests used:
[1] = tested on: IL-1β production by mouse peritoneal macrophages; assay: IL-1β production by mouse peritoneal macrophages (ELISA); assay type: cell-based; details: dose 20 μg/mL
Procedure: (1) IL-1β production: mice were intraperitoneally injected with 1 mL of broth medium containing 6% starch, and three days later, the mouse peritoneal macrophages were aseptically taken, washed twice with a 1640 medium, and the cell concentration was adjusted to 2×10^6 cells/mL, inoculated into a 24-well culture plate at 1 mL/well, incubated for 3 h in a cell incubator, and shaken once every 30 min, so that the cells were allowed to adhere sufficiently. Then, the cells were washed twice with a culture liquid to remove un-adhered cells. […] The supernatant was taken as a sample for testing activity of IL-1β.
(2) Determination of IL-1β content: the detection was performed by using mouse IL-1β enzyme-linked immunosorbent assay kit from R&D company. According to the instructions of the kit, the procedures were as follows: the reaction well for the test samples and different concentrations of standards were sealed with sealing tapes, respectively, incubation was performed at 37° C. for 90 min; the plate was washed four times; a biotinylated antibody working solution (100 μL/well) was added, the reaction well was sealed with sealing tapes, and incubation was performed at 37° C. for 60 min; the plate was washed four times; an enzyme conjugate working solution (100 μL/well) was added, the reaction well was sealed with sealing tapes, incubation was performed at 37° C. for 30 min; the plate was washed four times; a developer (100 μL/well) was added, incubation was performed at 37° C. for 10 to 20 min, a stop solution (100 μL/well) was added and mixed and the OD450 value was measured.

mouse spleen lymphocytes = assay: Proliferation of mouse spleen lymphocytes (ConA, MTT); assay type: cell-based; details: dose 20 μg/mL
Procedure: Tris-NH4Cl was used to break the red blood cells, which were allowed to stand in an ice water bath for 4 min and centrifuged (1000 rpm, 5 min), the supernatant was discarded, and the cells were washed twice with sterile PBS.
The cells were statically cultured in a cell incubator at 37° C. for 48 h. After the completion of the culture, 20 μL of MTT was added to each well, and the culture was continued for 4 h. Finally, all the solutions in each well were discarded, 100 μL of DMSO was added to each well, and the mixture was shaken and detected by a microplate reader for OD value at 570 nm. 5 parallels were preformed for per well.

[2] = tested on: toe swelling in rat induced by carrageenan; assay: Acute inflammation of toe swelling in rat induced by carrageenan; assay type: in vivo; details: 10 mg/kg (positive control), rat foot
Procedure: 80 SD rats were randomly divided into 8 groups with 10 mice for each group. […] The drug was administered once by injection, and the model group was given an equal volume of physiological saline and fed normally. On the third day, 0.1 mL of 1% carrageenan was injected subcutaneously into the right hind toes of the rats to induce inflammation. The foot volume was measured at 1 h, 3 h, 5 h, and 7 h after inflammation. The swelling degree of the foot was calculated according to the following formula: the swelling degree of the foot (mL)=the volume of the foot after inflammation—the volume before inflammation. The number of milliliters of spilled liquid was recorded (method: the protruding point of the right joint was circled with a ballpoint pen and used as a measurement mark, and the right hind feet of the rat were sequentially placed in the volume measuring device, so that the hind limbs were exposed outside the cylinder, and the depth of the immersion was limited to the overlap of the circle and the liquid level. After the foot entered the liquid, the liquid level was raised, and the volume of the spilled liquid was the volume of the right hind foot of the rat, and the normal volume of the right hind foot of each rat is sequentially determined).

[3] = tested on: peritoneal capillary permeability in mice; assay: Peritoneal capillary permeability in mice (HAc, Evans blue); assay type: in vivo; details: mice, dose 10 mg/kg
Procedure: The drug was administered once by injection (EDSM needed to be administered twice a day), and the blank model group was given an equal volume of physiological saline and fed normally. On the 5th day, a 5 g/L Evans blue physiological saline solution was injected into the tail vein at […], followed by intraperitoneal injection ([…]) of a HAc solution (6 mL/L) to induce inflammation. After 20 min, the mice were sacrificed by cervical dislocation. 5 mL of physiological saline was intraperitoneally injected, the abdomen was gently rubbed for 2 min, the abdominal cavity was cut, a peritoneal washing solution was collected and centrifuged at 4000 rpm for 10 min, 1 mL of supernatant was taken, and 3 mL of physiological saline was added to obtain 4 mL of dilution. The absorbance OD value of the dilution was measured by an ultraviolet spectrophotometer at a wavelength of 590 nm, and the amount of pigment exudation was expressed by the OD590 nm value, and the peritoneal capillary permeability in mice was examined.

[4] = tested on: angiogenesis of chicken embryo chorioallantoic membrane; assay: Chicken embryo chorioallantoic membrane (CAM) angiogenesis assay; assay type: in vivo; details: 10 μg (positive control), CAM, 72 hours
Source text: In this study, CAM assay was used to investigate the activity of fusion protein I, protein II, protein III, protein IV, and protein V to inhibit angiogenesis in vivo. The study has shown that the biosynthesis rate of collagen reached the maximum on the 8th to 11th day of chicken embryo development, which was the most vigorous stage of angiogenesis, and the body's immune system had not yet been fully established at that time, and thus the chicken embryos developed to the 8th day was selected to be administered. […] The following steps were used.
(1) The White Leghorn chicken embryos on day 6 were cultured in a 37° C. incubator at 60%-70% humidity for two days.
(2) A 1.0 cm×1.0 cm window was drilled above the chicken embryo air sac, and the inner membrane was torn off with forceps to expose the chorioallantoic membrane. Lens paper having a diameter of 5 mm was used as a loading carrier, and was placed on the chorioallantoic membrane of the chicken embryo air sac. Filter paper with PBS was used as a blank group, and the administration group was added with different doses of fusion protein.
(3) The chicken embryo air sac was sealed with a sterile transparent tape, and after culturing at 37° C. for 72 hours, the chicken embryo air sac was opened, and a fixative (formaldehyde:acetone=1:1) was added for fixation for 15 minutes. The chorioallantoic membrane to which the lens paper was adhered was taken out, the distribution of the new blood vessels was observed, and the new blood vessels were counted and photographed. Five replicates were set for each dose and the results were statistically analyzed.

Compound | IL-1β [1] | PI (%) [1] | A570 nm/A630 nm (mouse spleen lymphocytes) | PI (%) (mouse spleen lymphocytes) | Swelling degree 1 h ([2]; 1 h after carrageenan) | Swelling degree 3 h ([2]; 3 h after carrageenan) | Swelling degree 5 h ([2]; 5 h after carrageenan) | Swelling degree 7 h ([2]; 7 h after carrageenan) | Exudation rate (OD590) [3] | Blood vessel number [4]
C[C@@H]1C[C@H]2[C@@H]3CCC4=CC(=O)C=C[C@]4(C)[C@@]3(F)[C@@H](O)C[C@]2(C)[C@@]1(O)C(=O)CO [Dex, dexamethasone, reference compound] | 310.25 ± 20.32 pg/mL | 63.36% | 0.3401 ± 0.1131 | 41.19% | 0.21 ± 0.11 mL | 0.23 ± 0.04 mL | 0.25 ± 0.09 mL | 0.27 ± 0.12 mL | 0.22 ± 0.03 | 
Avastin: positive control group in HRCEC and CAM assays [reference compound] |  |  |  |  |  |  |  |  |  | 57 ± 16
